How the values were obtained:
NCI-H460 [1] = assay: Growth inhibition of human NCI-H460 cells assessed as cell growth at 0.01 uM incubated for 48 hrs by sulforhodamine B assay relative to control; format: functional; settings: NCI-H460, 48 h, read-out: Activity
CAKI-1 [2] = assay: Growth inhibition of human Caki1 cells assessed as cell growth at 100 uM incubated for 48 hrs by sulforhodamine B assay relative to control; format: functional; settings: CAKI-1, 48 h, read-out: Activity
HCT-15 = assay: Growth inhibition of human HCT15 cells assessed as cell growth at 0.01 uM incubated for 48 hrs by sulforhodamine B assay relative to control; format: functional; settings: HCT-15, 48 h, read-out: Activity
UO-31 [3] = assay: Growth inhibition of human UO31 cells assessed as cell growth at 0.1 uM incubated for 48 hrs by sulforhodamine B assay relative to control; format: functional; settings: UO-31, 48 h, read-out: Activity
MCF7 [4] = assay: Growth inhibition of human MCF7 cells assessed as cell growth at 0.1 uM incubated for 48 hrs by sulforhodamine B assay relative to control; format: functional; settings: MCF7, 48 h, read-out: Activity
SF-268 = assay: Growth inhibition of human SF268 cells assessed as cell growth at 0.01 uM incubated for 48 hrs by sulforhodamine B assay relative to control; format: functional; settings: SF-268, 48 h, read-out: Activity
NCI-H460 [5] = assay: Growth inhibition of human NCI-H460 cells assessed as cell growth at 100 uM incubated for 48 hrs by sulforhodamine B assay relative to control; format: functional; settings: NCI-H460, 48 h, read-out: Activity
ACHN [6] = assay: Growth inhibition of human ACHN cells assessed as cell growth at 0.1 uM incubated for 48 hrs by sulforhodamine B assay relative to control; format: functional; settings: read-out: Activity
HCT-116 = assay: Growth inhibition of human HCT116 cells assessed as cell growth at 1 uM incubated for 48 hrs by sulforhodamine B assay relative to control; format: functional; settings: HCT-116, 48 h, read-out: Activity
CCRF-CEM = assay: Growth inhibition of human CCRF-CEM cells assessed as cell growth at 0.1 uM incubated for 48 hrs by sulforhodamine B assay relative to control; format: functional; settings: read-out: Activity
OVCAR-8 = assay: Growth inhibition of human OVCAR8 cells incubated for 48 hrs by sulforhodamine B assay; format: functional, cell-based; settings: OVCAR-8, 48 h
ACHN [7] = assay: Growth inhibition of human ACHN cells assessed as cell growth at 1 uM incubated for 48 hrs by sulforhodamine B assay relative to control; format: functional; settings: read-out: Activity
Malme-3M = assay: Growth inhibition of human MALME-3M cells incubated for 48 hrs by sulforhodamine B assay; format: functional, cell-based
MDA-MB-435 = assay: Growth inhibition of human MDA-MB-435 cells assessed as cell growth at 1 uM incubated for 48 hrs by sulforhodamine B assay relative to control; format: functional; settings: MDA-MB-435, 48 h, read-out: Activity
SK-OV-3 = assay: Growth inhibition of human SKOV3 cells assessed as cell growth at 100 uM incubated for 48 hrs by sulforhodamine B assay relative to control; format: functional; settings: SK-OV-3, 48 h, read-out: Activity
786-0 = assay: Growth inhibition of human 786-0 cells assessed as cell growth at 100 uM incubated for 48 hrs by sulforhodamine B assay relative to control; format: functional; settings: 786-0, 48 h, read-out: Activity
NCI-H460 [8] = assay: Growth inhibition of human NCI-H460 cells assessed as cell growth at 1 uM incubated for 48 hrs by sulforhodamine B assay relative to control; format: functional; settings: NCI-H460, 48 h, read-out: Activity
HCC 2998 = assay: Growth inhibition of human HCC2998 cells assessed as cell growth at 0.01 uM incubated for 48 hrs by sulforhodamine B assay relative to control; format: functional; settings: HCC 2998, 48 h, read-out: Activity
RPMI-8226 [9] = assay: Growth inhibition of human RPMI8226 cells incubated for 48 hrs by sulforhodamine B assay; format: functional, cell-based; settings: RPMI-8226, 48 h
NCI-H522 = assay: Growth inhibition of human NCI-H522 cells assessed as cell growth at 1 uM incubated for 48 hrs by sulforhodamine B assay relative to control; format: functional; settings: NCI-H522, 48 h, read-out: Activity
UO-31 [10] = assay: Growth inhibition of human UO31 cells assessed as cell growth at 100 uM incubated for 48 hrs by sulforhodamine B assay relative to control; format: functional; settings: UO-31, 48 h, read-out: Activity
NCI-H322M [11] = assay: Growth inhibition of human NCI-H322M cells incubated for 48 hrs by sulforhodamine B assay; format: functional, cell-based
MDA-MB-231 = assay: Growth inhibition of human MDA-MB-231 cells assessed as cell growth at 1 uM incubated for 48 hrs by sulforhodamine B assay relative to control; format: functional; settings: MDA-MB-231, 48 h, read-out: Activity
CAKI-1 [12] = assay: Growth inhibition of human Caki1 cells incubated for 48 hrs by sulforhodamine B assay; format: functional, cell-based; settings: CAKI-1, 48 h
SF-295 = assay: Growth inhibition of human SF295 cells incubated for 48 hrs by sulforhodamine B assay; format: functional, cell-based; settings: SF-295, 48 h
NCI-H322M [13] = assay: Growth inhibition of human NCI-H322M cells assessed as cell growth at 1 uM incubated for 48 hrs by sulforhodamine B assay relative to control; format: functional; settings: read-out: Activity
MCF7 [14] = assay: Growth inhibition of human MCF7 cells assessed as cell growth at 100 uM incubated for 48 hrs by sulforhodamine B assay relative to control; format: functional; settings: MCF7, 48 h, read-out: Activity
RPMI-8226 [15] = assay: Growth inhibition of human RPMI8226 cells assessed as cell growth at 0.01 uM incubated for 48 hrs by sulforhodamine B assay relative to control; format: functional; settings: RPMI-8226, 48 h, read-out: Activity
HOP-62 = assay: Growth inhibition of human HOP62 cells assessed as cell growth at 0.1 uM incubated for 48 hrs by sulforhodamine B assay relative to control; format: functional; settings: HOP-62, 48 h, read-out: Activity
[16] = read-out: LC50 (the source's name)
[17] = read-out: pLC50 (the source's name) (converted)

COc1cc(Cl)cc(-c2nn(-c3cccc(NC(=O)c4ccc(N5CCOCC5)c(C(F)(F)F)c4)c3)cc2-c2ccncc2)c1
growth at 0.01 µM (NCI-H460 [1]): 102%
growth at 100 µM (CAKI-1 [2]): 14%
growth at 0.01 µM (HCT-15): 94%
growth at 0.1 µM (UO-31 [3]): 87%
growth at 0.1 µM (MCF7 [4]): 92%
growth at 0.01 µM (SF-268): 95%
growth at 100 µM (NCI-H460 [5]): 5%
growth at 0.1 µM (ACHN [6]): 91%
growth at 1 µM (HCT-116): 90%
growth at 0.1 µM (CCRF-CEM): 101%
GI50 (OVCAR-8; read-out: GI50): 6.33 µM
CC50 (OVCAR-8; [16]): > 100 µM
TGI (OVCAR-8; read-out: TGI): > 100 µM
GI50 (OVCAR-8; read-out: pGI50 (converted)): 6.31 µM
CC50 (OVCAR-8; [17]): > 100 µM
TGI (OVCAR-8; read-out: pTGI (converted)): > 100 µM
growth at 1 µM (ACHN [7]): 58%
GI50 (Malme-3M; read-out: GI50): 2.53 µM
CC50 (Malme-3M; [16]): > 100 µM
TGI (Malme-3M; read-out: TGI): > 100 µM
GI50 (Malme-3M; read-out: pGI50 (converted)): 28.2 µM
CC50 (Malme-3M; [17]): > 100 µM
TGI (Malme-3M; read-out: pTGI (converted)): > 100 µM
growth at 1 µM (MDA-MB-435): 92%
growth at 100 µM (SK-OV-3): 70%
growth at 100 µM (786-0): -30%
growth at 1 µM (NCI-H460 [8]): 96%
growth at 0.01 µM (HCC 2998): 95%
IC50 (RPMI-8226 [9]): 1.5 µM
GI50 (RPMI-8226 [9]; read-out: GI50): 1.5 µM
CC50 (RPMI-8226 [9]; [16]): > 100 µM
TGI (RPMI-8226 [9]; read-out: TGI): > 100 µM
GI50 (RPMI-8226 [9]; read-out: pGI50 (converted)): 1.51 µM
CC50 (RPMI-8226 [9]; [17]): > 100 µM
TGI (RPMI-8226 [9]; read-out: pTGI (converted)): > 100 µM
growth at 1 µM (NCI-H522): 77%
growth at 100 µM (UO-31 [10]): 17%
GI50 (NCI-H322M [11]; read-out: GI50): 7.37 µM
CC50 (NCI-H322M [11]; [16]): > 100 µM
TGI (NCI-H322M [11]; read-out: TGI): > 100 µM
GI50 (NCI-H322M [11]; read-out: pGI50 (converted)): 74.1 µM
CC50 (NCI-H322M [11]; [17]): > 100 µM
TGI (NCI-H322M [11]; read-out: pTGI (converted)): > 100 µM
growth at 1 µM (MDA-MB-231): 78%
GI50 (CAKI-1 [12]; read-out: GI50): 4.4 µM
CC50 (CAKI-1 [12]; [16]): > 100 µM
TGI (CAKI-1 [12]; read-out: TGI): > 100 µM
GI50 (CAKI-1 [12]; read-out: pGI50 (converted)): 4.37 µM
CC50 (CAKI-1 [12]; [17]): > 100 µM
TGI (CAKI-1 [12]; read-out: pTGI (converted)): > 100 µM
GI50 (SF-295; read-out: GI50): 2.71 µM
CC50 (SF-295; [16]): > 100 µM
TGI (SF-295; read-out: TGI): 14.8 µM
GI50 (SF-295; read-out: pGI50 (converted)): 2.19 µM
CC50 (SF-295; [17]): > 100 µM
TGI (SF-295; read-out: pTGI (converted)): 14.8 µM
growth at 1 µM (NCI-H322M [13]): 55%
growth at 100 µM (MCF7 [14]): 23%
growth at 0.01 µM (RPMI-8226 [15]): 99%
growth at 0.1 µM (HOP-62): 105%

Source: ChEMBL document CHEMBL4308841, “Synthesis, in vitro antiproliferative activity, and kinase inhibitory effects of pyrazole-containing diarylureas and diarylamides” (Eur J Med Chem, 2018)
